Assay results reported in ChEMBL document CHEMBL3611969, “The effect of complexation of 3-formylrifamycin SV macrocyclic ether derivatives with metal cations and small nitrogen-containing organic molecules on antibacterial activity against S. aureus and S. epidermidis” (Bioorg Med Chem Lett, 2015).
Converted amounts (≈) assume the structure as drawn.

Tests used:
Staphylococcus aureus [1] = experiment: Antibacterial activity against Staphylococcus aureus ATCC 6538 after 18 hrs by serial microdilution method; format: functional; details: ATCC 6538, 18 h
Staphylococcus aureus [2] = experiment: Antibacterial activity against Staphylococcus aureus ATCC 6538 after 18 hrs by serial microdilution method in presence of isoniazid; format: functional; details: ATCC 6538, 18 h
Staphylococcus aureus [3] = experiment: Antibacterial activity against Staphylococcus aureus ATCC 6538 after 18 hrs by serial microdilution method in presence of 2-chlorobenzylamine; format: functional; details: ATCC 6538, 18 h
Staphylococcus aureus [4] = experiment: Antibacterial activity against Staphylococcus aureus ATCC 6538 after 18 hrs by serial microdilution method in presence of 4-fluorobenzylamine; format: functional; details: ATCC 6538, 18 h
Staphylococcus aureus [5] = experiment: Antibacterial activity against Staphylococcus aureus ATCC 6538 after 18 hrs by serial microdilution method in presence of histamine; format: functional; details: ATCC 6538, 18 h
Staphylococcus aureus [6] = experiment: Antibacterial activity against Staphylococcus aureus ATCC 4163 after 18 hrs by serial microdilution method; format: functional; details: ATCC 4163, 18 h
Staphylococcus aureus [7] = experiment: Antibacterial activity against Staphylococcus aureus ATCC 4163 after 18 hrs by serial microdilution method in presence of 2-chlorobenzylamine; format: functional; details: ATCC 4163, 18 h
Staphylococcus aureus [8] = experiment: Antibacterial activity against Staphylococcus aureus ATCC 4163 after 18 hrs by serial microdilution method in presence of 4-fluorobenzylamine; format: functional; details: ATCC 4163, 18 h
Staphylococcus aureus [9] = experiment: Antibacterial activity against Staphylococcus aureus ATCC 4163 after 18 hrs by serial microdilution method in presence of isoniazid; format: functional; details: ATCC 4163, 18 h
Staphylococcus aureus [10] = experiment: Antibacterial activity against Staphylococcus aureus ATCC 4163 after 18 hrs by serial microdilution method in presence of histamine; format: functional; details: ATCC 4163, 18 h
Staphylococcus aureus [11] = experiment: Antibacterial activity against Staphylococcus aureus ATCC 25923 after 18 hrs by serial microdilution method; format: functional; details: ATCC 25923, 18 h
Staphylococcus aureus [12] = experiment: Antibacterial activity against Staphylococcus aureus ATCC 25923 after 18 hrs by serial microdilution method in presence of 2-chlorobenzylamine; format: functional; details: ATCC 25923, 18 h
Staphylococcus aureus [13] = experiment: Antibacterial activity against Staphylococcus aureus ATCC 25923 after 18 hrs by serial microdilution method in presence of 4-fluorobenzylamine; format: functional; details: ATCC 25923, 18 h
Staphylococcus aureus [14] = experiment: Antibacterial activity against Staphylococcus aureus ATCC 25923 after 18 hrs by serial microdilution method in presence of isoniazid; format: functional; details: ATCC 25923, 18 h
Staphylococcus aureus [15] = experiment: Antibacterial activity against Staphylococcus aureus ATCC 25923 after 18 hrs by serial microdilution method in presence of histamine; format: functional; details: ATCC 25923, 18 h
[16] = test system: Staphylococcus epidermidis; experiment: Antibacterial activity against Staphylococcus epidermidis ATCC 12228 after 18 hrs by serial microdilution method; format: functional; details: ATCC 12228, 18 h
[17] = test system: Staphylococcus epidermidis; experiment: Antibacterial activity against Staphylococcus epidermidis ATCC 12228 after 18 hrs by serial microdilution method in presence of 2-chlorobenzylamine; format: functional; details: ATCC 12228, 18 h
[18] = test system: Staphylococcus epidermidis; experiment: Antibacterial activity against Staphylococcus epidermidis ATCC 12228 after 18 hrs by serial microdilution method in presence of 4-fluorobenzylamine; format: functional; details: ATCC 12228, 18 h
[19] = test system: Staphylococcus epidermidis; experiment: Antibacterial activity against Staphylococcus epidermidis ATCC 12228 after 18 hrs by serial microdilution method in presence of isoniazid; format: functional; details: ATCC 12228, 18 h
[20] = test system: Staphylococcus epidermidis; experiment: Antibacterial activity against Staphylococcus epidermidis ATCC 12228 after 18 hrs by serial microdilution method in presence of histamine; format: functional; details: ATCC 12228, 18 h
[21] = test system: Staphylococcus epidermidis; experiment: Antibacterial activity against Staphylococcus epidermidis ATCC 49134 after 18 hrs by serial microdilution method; format: functional; details: ATCC 49134, 18 h
[22] = test system: Staphylococcus epidermidis; experiment: Antibacterial activity against Staphylococcus epidermidis ATCC 49134 after 18 hrs by serial microdilution method in presence of 2-chlorobenzylamine; format: functional; details: ATCC 49134, 18 h
[23] = test system: Staphylococcus epidermidis; experiment: Antibacterial activity against Staphylococcus epidermidis ATCC 49134 after 18 hrs by serial microdilution method in presence of 4-fluorobenzylamine; format: functional; details: ATCC 49134, 18 h
[24] = test system: Staphylococcus epidermidis; experiment: Antibacterial activity against Staphylococcus epidermidis ATCC 49134 after 18 hrs by serial microdilution method in presence of isoniazid; format: functional; details: ATCC 49134, 18 h
[25] = test system: Staphylococcus epidermidis; experiment: Antibacterial activity against Staphylococcus epidermidis ATCC 49134 after 18 hrs by serial microdilution method in presence of histamine; format: functional; details: ATCC 49134, 18 h
[26] = Solubility of the compound in water at pH 7; format: physicochemical
[27] = Octanol-water partition coefficient, log P of the compound by UV-vis method; format: physicochemical
[28] = Solubility of the compound in water at pH 7 in presence of histamine; format: physicochemical
[29] = Octanol-water partition coefficient, log P of the compound by UV-vis method in presence of histamine; format: physicochemical

Structure (SMILES): CO[C@H]1/C=C/O[C@@]2(C)Oc3c(C)c(O)c4c(O)c(c(CNc5ccc6c(c5)OCCOCCOCCOCCOCCO6)c(O)c4c3C2=O)NC(=O)/C(C)=C\C=C\[C@H](C)[C@H](O)[C@@H](C)[C@@H](O)[C@@H](C)[C@H](OC(C)=O)[C@@H]1C
- MIC (Staphylococcus aureus [1]): 2 µg/mL (≈ 1.93 µM)
- MIC (Staphylococcus aureus [2]): 1 µg/mL
- MIC (Staphylococcus aureus [3]): 0.25 µg/mL
- MIC (Staphylococcus aureus [4]): 0.25 µg/mL
- MIC (Staphylococcus aureus [5]): 0.125 µg/mL
- MIC (Staphylococcus aureus [6]): 2 µg/mL (≈ 1.93 µM)
- MIC (Staphylococcus aureus [7]): 0.25 µg/mL
- MIC (Staphylococcus aureus [8]): 0.25 µg/mL
- MIC (Staphylococcus aureus [9]): 1 µg/mL
- MIC (Staphylococcus aureus [10]): 0.125 µg/mL
- MIC (Staphylococcus aureus [11]): 2 µg/mL (≈ 1.93 µM)
- MIC (Staphylococcus aureus [12]): 0.25 µg/mL
- MIC (Staphylococcus aureus [13]): 0.25 µg/mL
- MIC (Staphylococcus aureus [14]): 1 µg/mL
- MIC (Staphylococcus aureus [15]): 0.125 µg/mL
- MIC [16]: 0.5 µg/mL (≈ 0.482 µM)
- MIC [17]: 0.25 µg/mL
- MIC [18]: 0.25 µg/mL
- MIC [19]: 0.5 µg/mL
- MIC [20]: 1.25 µg/mL
- MIC [21]: 0.5 µg/mL (≈ 0.482 µM)
- MIC [22]: 0.25 µg/mL
- MIC [23]: 0.25 µg/mL
- MIC [24]: 0.5 µg/mL
- MIC [25]: 0.125 µg/mL
- solubility [26]: 110 µg/mL (≈ 106 µM)
- logP [27]: 0.53
- solubility [28]: 410 µg/mL
- logP [29]: 0.69
